According to PubChem BioAssay AID2060601 (Molecular Pharmacology Branch, DTP, NCI, 2025):
pIC50: −log10 of the molar value. Blank lines part the entries; values can stand above or below the compound they belong to.

Tested on: 874868-142-R-J2-PDC complex spheroids, growth % test/control
Assay: Anticancer human tumor 874868-142-R-J2-PDC patient-derived head and neck squamous carcinoma cell line growth inhibition [CLK]
Conditions: for pIC50: curve of first compound; for viability, T/C: stronger effect = lower value
Outline: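 Patient-derived tumor cells grown as complex spheroids with HUVEC endothelial cells and mesenchymal stem cells, treated with drug combinations. Concentrations descend in half-log steps from near clinical Cmax, or from 10 microM if Cmax unknown.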

[1] = second compound 0.0316 µM, first compound 0.0316 µM
[2] = second compound 0.0316 µM, first compound 0.1 µM
[3] = second compound 0.0316 µM, first compound 0.316 µM
[4] = second compound 0.0316 µM, first compound 1 µM
[5] = second compound 0.0316 µM, first compound 3.16 µM
[6] = second compound 0.0316 µM, first compound 10 µM
[7] = second compound 0.1 µM, first compound 0.0316 µM
[8] = second compound 0.1 µM, first compound 0.1 µM
[9] = second compound 0.1 µM, first compound 0.316 µM
[10] = second compound 0.1 µM, first compound 1 µM
[11] = second compound 0.1 µM, first compound 3.16 µM
[12] = second compound 0.1 µM, first compound 10 µM
[13] = second compound 0.316 µM, first compound 0.0316 µM
[14] = second compound 0.316 µM, first compound 0.1 µM
[15] = second compound 0.316 µM, first compound 0.316 µM
[16] = second compound 0.316 µM, first compound 1 µM
[17] = second compound 0.316 µM, first compound 3.16 µM
[18] = second compound 0.316 µM, first compound 10 µM
[19] = second compound 1 µM, first compound 0.0316 µM
[20] = second compound 1 µM, first compound 0.1 µM
[21] = second compound 1 µM, first compound 0.316 µM
[22] = second compound 1 µM, first compound 1 µM
[23] = second compound 1 µM, first compound 3.16 µM
[24] = second compound 1 µM, first compound 10 µM
[25] = second compound 3.16 µM, first compound 0.0316 µM
[26] = second compound 3.16 µM, first compound 0.1 µM
[27] = second compound 3.16 µM, first compound 0.316 µM
[28] = second compound 3.16 µM, first compound 1 µM
[29] = second compound 3.16 µM, first compound 3.16 µM
[30] = second compound 3.16 µM, first compound 10 µM
[31] = second compound 10 µM, first compound 0.0316 µM
[32] = second compound 10 µM, first compound 0.1 µM
[33] = second compound 10 µM, first compound 0.316 µM
[34] = second compound 10 µM, first compound 1 µM
[35] = second compound 10 µM, first compound 3.16 µM
[36] = second compound 10 µM, first compound 10 µM
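Note: spheroids exposed to the compounds for 7 days.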
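Throughout, for viability, T/C: 100% = DMSO vehicle control viability.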

SMILES: CC(=O)O[C@H]1C(=O)[C@@]2(C)[C@H]([C@H](OC(=O)c3ccccc3)[C@]3(O)C[C@H](OC(=O)[C@H](O)[C@@H](NC(=O)c4ccccc4)c4ccccc4)C(C)=C1C3(C)C)[C@]1(OC(C)=O)CO[C@@H]1C[C@@H]2O + CN1CCN(c2cc(C(=O)Nc3cc4cc(-c5cnn(C)c5)ccc4cn3)ccn2)CC1
pIC50 (second compound 0.0316 µM): > 7.50 | pIC50 (second compound 0.1 µM): > 7.50 | pIC50 (second compound 0.316 µM): > 7.50 | pIC50 (second compound 1 µM): > 7.50 | pIC50 (second compound 3.16 µM): > 7.50 | pIC50 (second compound 10 µM): > 7.50 | viability, T/C [1]: 26.6% | viability, T/C [2]: 18.9% | viability, T/C [3]: 19.1% | viability, T/C [4]: 22% | viability, T/C [5]: 21.3% | viability, T/C [6]: 27.4% | viability, T/C [7]: 28.1% | viability, T/C [8]: 19.6% | viability, T/C [9]: 20% | viability, T/C [10]: 18.1% | viability, T/C [11]: 14.7% | viability, T/C [12]: 27.9% | viability, T/C [13]: 13% | viability, T/C [14]: 15.6% | viability, T/C [15]: 15.3% | viability, T/C [16]: 9.43% | viability, T/C [17]: 17.7% | viability, T/C [18]: 17.3% | viability, T/C [19]: 0.22% | viability, T/C [20]: 0.23% | viability, T/C [21]: 0.5% | viability, T/C [22]: 0.59% | viability, T/C [23]: 0.23% | viability, T/C [24]: 0.27% | viability, T/C [25]: 0.16% | viability, T/C [26]: 0.16% | viability, T/C [27]: 2.82% | viability, T/C [28]: 0.21% | viability, T/C [29]: 0.18% | viability, T/C [30]: 0.15% | viability, T/C [31]: 0.12% | viability, T/C [32]: 0.18% | viability, T/C [33]: 1.66% | viability, T/C [34]: 0.18% | viability, T/C [35]: 2.53% | viability, T/C [36]: 1.6%

SMILES: COc1ccc([C@@H](O)c2cc(-c3ncnc4cc(N5CCOCC5)ccc34)c(F)cc2Cl)nn1 + CN1CCN(c2cc(C(=O)Nc3cc4cc(-c5cnn(C)c5)ccc4cn3)ccn2)CC1
pIC50 (second compound 0.0316 µM): 5.70 | pIC50 (second compound 0.1 µM): 6.05 | pIC50 (second compound 0.316 µM): > 7.50 | pIC50 (second compound 1 µM): > 7.50 | pIC50 (second compound 3.16 µM): > 7.50 | pIC50 (second compound 10 µM): > 7.50 | viability, T/C [1]: 83.6% | viability, T/C [2]: 77.9% | viability, T/C [3]: 74.9% | viability, T/C [4]: 70.4% | viability, T/C [5]: 36.1% | viability, T/C [6]: 32.6% | viability, T/C [7]: 71% | viability, T/C [8]: 62.7% | viability, T/C [9]: 64.5% | viability, T/C [10]: 48.8% | viability, T/C [11]: 30.9% | viability, T/C [12]: 30.3% | viability, T/C [13]: 17.3% | viability, T/C [14]: 12.2% | viability, T/C [15]: 13.4% | viability, T/C [16]: 9.3% | viability, T/C [17]: 14.9% | viability, T/C [18]: 13.4% | viability, T/C [19]: 0.18% | viability, T/C [20]: 0.23% | viability, T/C [21]: 2.66% | viability, T/C [22]: 0.22% | viability, T/C [23]: 0.24% | viability, T/C [24]: 0.33% | viability, T/C [25]: 0.22% | viability, T/C [26]: 0.16% | viability, T/C [27]: 3.99% | viability, T/C [28]: 0.25% | viability, T/C [29]: 0.23% | viability, T/C [30]: 0.35% | viability, T/C [31]: 0.06% | viability, T/C [32]: 0.15% | viability, T/C [33]: 2.92% | viability, T/C [34]: 0.15% | viability, T/C [35]: 0.22% | viability, T/C [36]: 3.6%

SMILES: COc1cccc2c1C(=O)c1c(O)c3c(c(O)c1C2=O)CC(O)(C(=O)CO)CC3OC1CC(N)C(O)C(C)O1 (stereo not given) + CN1CCN(c2cc(C(=O)Nc3cc4cc(-c5cnn(C)c5)ccc4cn3)ccn2)CC1
pIC50 (second compound 0.0316 µM): 7.06 | pIC50 (second compound 0.1 µM): 7.33 | pIC50 (second compound 0.316 µM): > 7.50 | pIC50 (second compound 1 µM): > 7.50 | pIC50 (second compound 3.16 µM): > 7.50 | pIC50 (second compound 10 µM): > 7.50 | viability, T/C [1]: 63.8% | viability, T/C [2]: 45.1% | viability, T/C [3]: 28.2% | viability, T/C [4]: 1.26% | viability, T/C [5]: 0.13% | viability, T/C [6]: 0.12% | viability, T/C [7]: 55.6% | viability, T/C [8]: 38.7% | viability, T/C [9]: 20.3% | viability, T/C [10]: 1.08% | viability, T/C [11]: 0.17% | viability, T/C [12]: 0.22% | viability, T/C [13]: 14.6% | viability, T/C [14]: 12.6% | viability, T/C [15]: 3.13% | viability, T/C [16]: 0.26% | viability, T/C [17]: 0.13% | viability, T/C [18]: 0.18% | viability, T/C [19]: 0.21% | viability, T/C [20]: 0.85% | viability, T/C [21]: 0.41% | viability, T/C [22]: 0.34% | viability, T/C [23]: 0.12% | viability, T/C [24]: 0.14% | viability, T/C [25]: 0.22% | viability, T/C [26]: 0.15% | viability, T/C [27]: 2.26% | viability, T/C [28]: 0.14% | viability, T/C [29]: 0.21% | viability, T/C [30]: 0.12% | viability, T/C [31]: 0.07% | viability, T/C [32]: 0.94% | viability, T/C [33]: 0.15% | viability, T/C [34]: 0.12% | viability, T/C [35]: 0.14% | viability, T/C [36]: 0.67%

pIC50 (second compound 0.0316 µM): < 5.00 | pIC50 (second compound 0.1 µM): < 5.00 | pIC50 (second compound 0.316 µM): < 5.00 | pIC50 (second compound 1 µM): > 7.50 | pIC50 (second compound 3.16 µM): > 7.50 | pIC50 (second compound 10 µM): > 7.50
SMILES: CCCS(=O)(=O)Nc1ccc(F)c(C(=O)c2c[nH]c3ncc(-c4ccc(Cl)cc4)cc23)c1F + CNC(=O)c1ccc(Nc2nc(OC3CCCC3)c3c(-c4ccc5nc(C)oc5c4)c[nH]c3n2)c(OC)c1
viability, T/C [1]: 119% | viability, T/C [2]: 122% | viability, T/C [3]: 133% | viability, T/C [4]: 143% | viability, T/C [5]: 139% | viability, T/C [6]: 87.8% | viability, T/C [7]: 101% | viability, T/C [8]: 104% | viability, T/C [9]: 110% | viability, T/C [10]: 144% | viability, T/C [11]: 140% | viability, T/C [12]: 84.6% | viability, T/C [13]: 62.2% | viability, T/C [14]: 59.6% | viability, T/C [15]: 59.6% | viability, T/C [16]: 61.8% | viability, T/C [17]: 67.9% | viability, T/C [18]: 53.2% | viability, T/C [19]: 40.9% | viability, T/C [20]: 38.2% | viability, T/C [21]: 46.8% | viability, T/C [22]: 54.9% | viability, T/C [23]: 49.3% | viability, T/C [24]: 45.3% | viability, T/C [25]: 41.2% | viability, T/C [26]: 38% | viability, T/C [27]: 41.8% | viability, T/C [28]: 38.8% | viability, T/C [29]: 53.8% | viability, T/C [30]: 32% | viability, T/C [31]: 38.8% | viability, T/C [32]: 44.1% | viability, T/C [33]: 50.2% | viability, T/C [34]: 37.6% | viability, T/C [35]: 52.4% | viability, T/C [36]: 45.2%

pIC50 (second compound 0.0316 µM): 6.15 | pIC50 (second compound 0.1 µM): 6.12 | pIC50 (second compound 0.316 µM): 7.10 | pIC50 (second compound 1 µM): > 7.50 | pIC50 (second compound 3.16 µM): > 7.50 | pIC50 (second compound 10 µM): > 7.50
SMILES: COC1C=CCC(C)C(C)S(=O)(=O)NC(=O)c2ccc3c(c2)N(CC2CCC21)CC1(CCCc2cc(Cl)ccc21)CO3 (stereo not given) + CNC(=O)c1ccc(Nc2nc(OC3CCCC3)c3c(-c4ccc5nc(C)oc5c4)c[nH]c3n2)c(OC)c1
viability, T/C [1]: 92.5% | viability, T/C [2]: 87.4% | viability, T/C [3]: 64.6% | viability, T/C [4]: 42.1% | viability, T/C [5]: 28.4% | viability, T/C [6]: 15.8% | viability, T/C [7]: 92.2% | viability, T/C [8]: 68% | viability, T/C [9]: 57.1% | viability, T/C [10]: 56.6% | viability, T/C [11]: 28% | viability, T/C [12]: 13.2% | viability, T/C [13]: 58.7% | viability, T/C [14]: 49.1% | viability, T/C [15]: 35.6% | viability, T/C [16]: 29.1% | viability, T/C [17]: 25% | viability, T/C [18]: 14.3% | viability, T/C [19]: 44.4% | viability, T/C [20]: 34.8% | viability, T/C [21]: 24.9% | viability, T/C [22]: 18.6% | viability, T/C [23]: 14.8% | viability, T/C [24]: 16.8% | viability, T/C [25]: 36.9% | viability, T/C [26]: 28.7% | viability, T/C [27]: 25.7% | viability, T/C [28]: 19.7% | viability, T/C [29]: 18.5% | viability, T/C [30]: 16.9% | viability, T/C [31]: 40.1% | viability, T/C [32]: 30.4% | viability, T/C [33]: 32.8% | viability, T/C [34]: 17.4% | viability, T/C [35]: 20.6% | viability, T/C [36]: 14.9%
